The values below come from patent US10350169B2, “Compositions and methods for bile acid particles” (UNIVERSITY OF UTAH RESEARCH FOUNDATION, priority 2014, dated 2019).

A short description of data set [1]: DOX biodistribution in tumor-bearing mice (DOX fluorescence). The following applies: IV injection, 4 hr, versus orally administered groups. It is filed as in vivo, HepG2 tumor-bearing NOD/SCID mice. As to the method: Biodistribution. A biodistribution study was performed in HepG2 tumor-bearing NOD/SCID mice. The major organs and intestinal tract of each mouse were collected 4 hr after administration of the formulations. The liver, kidney, heart, stomach, small intestine including duodenum, jejunum, ileum, and tumor of each mouse was collected and suspended in 70% ethanol with 0.3 N HCl. The samples were then homogenized to extract the doxorubicin, and then the samples were refrigerated for 24 hr and centrifuged to collect supernatant. For analysis, 200 μL of the supernatant was loaded in a black opaque plate and DOX fluorescence was measured using a plate reader, where the wavelengths of excitation and emission were 470 and 590 nm, respectively.

Another data set concerns HT-29 xenograft. Put plainly: In vivo therapeutic efficacy in tumor bearing animal model. The arrangement: species or system NOD/SCID mice. The settings on record: oral, 10 mg/kg DOX, over 12 days. On the procedure: In vivo therapeutic efficacy in a tumor bearing animal model. The in vivo anticancer efficacy of free DOX, the cationic DOX-loaded liposome without a bile acid coating (“DOX-liposome”), and the anionic DOX-loaded liposome with the CS-TCA coating (“DL/CS-TCA”) was evaluated in a xenograft mouse model. HT-29 cells (1×10^7 cells per mouse) were subcutaneously injected into the back of NOD/SCID mice (n=3). When the tumor size reached approximately 100-150 mm^3, each mouse received an oral administration of PBS, 10 mg/kg free DOX, 10 mg/kg DOX in the DOX-liposome composition, or 10 mg/kg DOX in the DL/CS-TCA composition, once every two days. Tumor size and body weight were measured every 2 days. Tumor volumes were measured with a digital caliper and the tumor volume was calculated using the equation shown below. Tumor volume=(Length×width^2)/2

The subject of the next data set is HepG2 cells. Put plainly: In vitro cytotoxicity of polymers and DOX-loaded particles, MTT assay. Format: cell-based, human. The settings on record: 0.01-100 ug/mL, 24, 48 and 72 hr. On the procedure: In vitro cytotoxicity of DOX-loaded particles. To evaluate the cytotoxicity of the polymers and DOX-loaded particles, samples were transfected in a dose-dependent manner and evaluated by an MTT-based cell viability assay using HepG2 cells. Cell Culture: HepG2 cells (a human hepatoma cell line) were cultured in DMEM supplemented with 10% FBS and D-glucose (4.5 g/L). Cells were grown and maintained under humidified air containing 5% CO2 at 37° C. Cell Viability: a MTT assay was used to evaluate the cell viability of bile acid-linked polymers and DOX-loaded particles. HepG2 cells were seeded into a 96-well plate at a cell density of 5×10^3 cells/well in 100 μL media. […] MTT (10 μL; 5 mg/mL) solution was then added to the wells and incubated for 4 hr. All remaining media was aspirated, and DMSO (100 μL) was added to dissolve the formazan crystals produced from living cells with 10 min incubation at 37° C. The absorbance of the cells was measured at 570 nm and their cell viability was calculated.

The conditions of data set [2]: cited from earlier work.
The subject of data set [3] is HepG2 xenograft mouse model. The experiment in a line: In vivo efficacy in tumor bearing animal model. On the procedure:
In vivo efficacy in a tumor bearing animal model. The in vivo anticancer efficacy of free DOX and the DDP/H-TCA composition was evaluated in a HepG2 xenograft mouse model. Animals which were treated with free DOX delivered via both orally and via IV administration were used as a control group, and DDP/H-TCA compositions were administered orally every 3 days at a dose of 4 mg DOX/kg, up to 18 days.
HepG2 cells (5×10^6 cells/mL) in 100 μL PBS were injected subcutaneously into the back of each mouse. When the tumor size reached approximately 100-150 mm^3, each mouse received an oral administration of PBS, 4 mg/kg DOX, or 4 mg/kg DOX in a DDP/H-TCA composition, once every three days. In addition, an equal amount of doxorubicin was intravenously (IV) administered in a control group. Tumors were measured every three days with a digital caliper and the tumor volume was calculated using the equation shown below.
To achieve a relatively high concentration, the lyophilized powder of DDP/H-TCA particles was reconstituted in DI water just prior to in vivo administration. First, the tumor growth inhibition efficacy of bile acid-coated DOX-loaded particles was investigated in a mouse xenograft model. Doxorubicin (DOX) at a dose of 4 mg/kg, or an equivalent amount of DOX formulated as DDP/H-TCA particles, was prepared and delivered via IV or oral administration every 3 days up to 18 days to monitor tumor progression. DOX-loaded particles without a bile acid (i.e. no TCA) were also tested as a non-targeted control formulation to evaluate the tumor inhibition efficacy of the TCA. Because tumors in the PBS control group were quite aggressive and reached over 10% of the animals' body weight around day 18, all treatments were terminated and all mice were sacrificed at day 18.

The conditions of data set [4]: cited from earlier work. This is another data set of the same source.
The subject of the next data set is caco-2 cells. Put plainly: In vitro cellular uptake of insulin-Ce6 liposomes. Format: cell-based, Human. The settings on record: insulin-Ce6 10 ug/mL, 4 hr. On the procedure:
In vitro cellular uptake. Human epithelial colorectal adenocarcinoma cells (caco-2 cells) were maintained in Dulbeco's Modified Eagle's Medium (DMEM) with 1% penicillin-streptomycin and 10% FBS in a humidified standard incubator at 37° C. with a 5% CO2 atmosphere. Prior to testing, cells (1×10^5 cells/mL) that were grown as a monolayer were harvested via trypsinization using a 0.25% (wt/vol) trypsin/0.03% (wt/vol) EDTA solution. Caco-2 cells suspended in DMEM were seeded onto each well plate and cultured for 24 hours prior to the in vitro cell testing. The cellular uptake of the liposomes (provided in an amount equivalent to an insulin-Ce6 concentration of 10 ug/mL, treated for 4 hr) was monitored by FACSCalibur Flow Cytometer (Becton Dickinson, USA). In addition, the localization of the liposome was examined by fluorescence of the insulin-Ce6 loaded liposome using a confocal laser scanning microscope.

In the case of `COc1cccc2c1C(=O)c1c(O)c3c(c(O)c1C2=O)C[C@@](O)(C(=O)CO)C[C@@H]3O[C@H]1C[C@H](N)[C@H](O)[C@H](C)O1` [DOX, doxorubicin], the “DOX concentration in heart and liver tissues” value in data set [1] is “higher concentration of DOX was seen in the heart and liver tissues”. For the same compound, in the data set with HT-29 xenograft, the “change in tumor volume” value is reported as “not statistically better at reducing tumor volume than the buffer” and the relative body weight result is listed as “decrease slightly”. Besides, the “cytotoxicity (cell viability)” value in the data set on HepG2 cells is “highest dose-dependent cytotoxicity”. The pKa in data set [2] is on record as 7.2-8.0. Also, the body weight result in data set [3] (4 mg DOX/kg every 3 days up to 18 days) is given as “no significant weight loss”. In data set [3] (IV, 4 mg/kg every 3 days, up to 18 days), the “inhibition of tumor growth” value is listed as “greatest inhibition of tumor growth”. In addition, the “increase in tumor volume” value in data set [3] (oral, 4 mg DOX/kg every 3 days, up to 18 days) is reported as roughly 1400%. In addition, in data set [4], the oral bioavailability result was “about 5%”.
For “free insulin: Ce6-labeled insulin given without liposomes”, the “labeled insulin present in cells” value with caco-2 cells is on record as “relatively little labeled insulin present”.
